# Experimental data taken from ChEMBL document CHEMBL1201862, “PubChem BioAssay data set” (2004).
#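 Dose response: 5 concentrations. Exposure: 48 h. Format: 96-well plates. Endpoint: linear interpolation; highest concentration if not reached. GI50 is the concentration that inhibits growth by half.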 The source made the active and inactive calls. Rule as the data show it: active = GI50 up to about 1.1 µM and inactive = higher.
# Legend:
# Assay in all cases: growth of human tumour cells (NCI), 48 h
# SN12C = test system: SN12C
# UACC-257 = test system: UACC-257
# NCI-H23 = test system: NCI-H23
# SK-OV-3 = test system: SK-OV-3
# U-251 = test system: U-251
# HCC 2998 = test system: HCC 2998
# LOX IMVI = test system: LOX IMVI
# SW-620 = test system: SW-620
# KM12 = test system: KM12
# SR = test system: SR
# HL-60 = test system: HL-60
# Malme-3M = test system: Malme-3M
# HCT-15 = test system: HCT-15
# HT-29 = test system: HT-29
# SF-268 = test system: SF-268
# SF-539 = test system: SF-539
# A498 = test system: A498
# EKVX = test system: EKVX
SMILES,GI50 (SN12C),GI50 (UACC-257),GI50 (NCI-H23),GI50 (SK-OV-3),GI50 (U-251),GI50 (HCC 2998),GI50 (LOX IMVI),GI50 (SW-620),GI50 (KM12),GI50 (SR),GI50 (HL-60),GI50 (Malme-3M),GI50 (HCT-15) [µM],GI50 (HT-29),GI50 (SF-268),GI50 (SF-539),GI50 (A498),GI50 (EKVX)
CCCNc1ncnc2c1cnn2C,> 100 µM (inactive),> 100 µM (inactive),> 100 µM (inactive),> 100 µM (inactive),> 100 µM (inactive),> 100 µM (inactive),> 100 µM (inactive),> 100 µM (inactive),> 100 µM (inactive),> 100 µM (inactive),> 100 µM (inactive),> 100 µM (inactive),> 100,> 100 µM (inactive),> 100 µM (inactive),> 100 µM (inactive),> 100 µM (inactive),–
O=C(/C=C/c1ccc(Cl)c(Cl)c1)C1CCC(Cl)CC1 (configuration not stated),17.7 µM (inactive),18.5 µM (inactive),17.9 µM (inactive),18.1 µM (inactive),15.1 µM (inactive),17.2 µM (inactive),16.1 µM (inactive),16.9 µM (inactive),19.2 µM (inactive),–,–,18.5 µM (inactive),18.2,16.3 µM (inactive),19.5 µM (inactive),18.4 µM (inactive),22.4 µM (inactive),17.4 µM (inactive)
O=c1c2ccccc2c(=O)c2c1cc(Cl)c1[nH]c3c([nH]c12)c(Cl)cc1c(=O)c2ccccc2c(=O)c13,> 100 µM (inactive),> 100 µM (inactive),> 100 µM (inactive),> 100 µM (inactive),> 100 µM (inactive),> 100 µM (inactive),–,> 100 µM (inactive),> 100 µM (inactive),–,> 100 µM (inactive),> 100 µM (inactive),> 100,> 100 µM (inactive),> 100 µM (inactive),> 100 µM (inactive),> 100 µM (inactive),> 100 µM (inactive)
CCOc1ccc(/N=C\c2ccc3cc(C)ccc3n2)cc1,> 100 µM (inactive),76 µM (inactive),> 100 µM (inactive),> 100 µM (inactive),> 100 µM (inactive),33.2 µM (inactive),30.6 µM (inactive),58.9 µM (inactive),37.1 µM (inactive),–,19.5 µM (inactive),> 100 µM (inactive),41.8,34.6 µM (inactive),69 µM (inactive),40.3 µM (inactive),72.3 µM (inactive),55.6 µM (inactive)
O/N=C1/C(=C/c2ccc3c(c2)OCO3)CCCC1C(NO)c1ccc2c(c1)OCO2 (configuration not stated),21.3 µM (inactive),17.8 µM (inactive),30.4 µM (inactive),48.2 µM (inactive),20.8 µM (inactive),25 µM (inactive),–,30.8 µM (inactive),22.7 µM (inactive),–,15.9 µM (inactive),22 µM (inactive),32,16.7 µM (inactive),28.2 µM (inactive),18 µM (inactive),26.5 µM (inactive),35.1 µM (inactive)
Cc1cc(NS(=O)(=O)c2ccc(Nc3c4ccccc4nc4c(C(=O)N5CCN(CCO)CC5)ccc(Cl)c34)cc2)no1,72.1 µM (inactive),> 100 µM (inactive),> 100 µM (inactive),> 100 µM (inactive),> 100 µM (inactive),71.8 µM (inactive),–,–,> 100 µM (inactive),–,60.3 µM (inactive),> 100 µM (inactive),> 100,> 100 µM (inactive),98.9 µM (inactive),> 100 µM (inactive),> 100 µM (inactive),–
COc1cc(OC)c(SSCCCCS(=O)O)c(OC)c1,17.6 µM (inactive),10.7 µM (inactive),15.4 µM (inactive),23.8 µM (inactive),14.5 µM (inactive),20.1 µM (inactive),10.7 µM (inactive),13.9 µM (inactive),14.9 µM (inactive),–,3.91 µM (inactive),12.2 µM (inactive),16.6,16.4 µM (inactive),15.5 µM (inactive),16.1 µM (inactive),14.6 µM (inactive),13.7 µM (inactive)
O=C(O)CN(c1ccccc1)S(=O)(=O)c1cccc([N+](=O)[O-])c1,> 100 µM (inactive),> 100 µM (inactive),> 100 µM (inactive),> 100 µM (inactive),> 100 µM (inactive),–,> 100 µM (inactive),> 100 µM (inactive),> 100 µM (inactive),–,> 100 µM (inactive),> 100 µM (inactive),> 100,> 100 µM (inactive),> 100 µM (inactive),> 100 µM (inactive),> 100 µM (inactive),> 100 µM (inactive)
C[N+](C)(C)CC1CCCC(C[N+](C)(C)C)C1=NO (configuration not stated),> 100 µM (inactive),> 100 µM (inactive),> 100 µM (inactive),> 100 µM (inactive),> 100 µM (inactive),–,–,> 100 µM (inactive),> 100 µM (inactive),> 100 µM (inactive),–,> 100 µM (inactive),> 100,> 100 µM (inactive),–,> 100 µM (inactive),–,> 100 µM (inactive)
